# Assay results taken from patent publication US20250179059A1 (The Regents of the University of California, priority 2021, published 2025).
# Where two headings read alike, the source gives them in different places.
# What was measured:
# [1] = target: T1, human BRD4 bromodomain II (Homo sapiens, UniProt O60885); assay: Bromodomain binding assay (AlphaScreen), BRD4 BDII
# T1 construct: human BRD4 bromodomain II [based on Genbank NM_058243, residues 349-460]; host or cells: E. coli
# Outline: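 Inhibition of acetyl-H4 peptide binding to human BRD4 bromodomains is measured by bead-based proximity (AlphaScreen) in pH 7.5 HEPES buffer containing 0.05% CHAPS and 0.1% BSA. Ten compound concentrations in 3-fold steps give competitive binding IC50s.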
# [2] = system: human SKM-1 acute myeloid leukemia cells; assay: SKM-1 antiproliferation cell-based assay (ATPlite); details: Homo sapiens
# Outline: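 Log-phase cells in RPMI 1640/15% FBS were seeded at 34722 cells/mL and exposed for 4 days to nine-concentration DMSO serial dilutions in triplicate. Viability was read as ATP luminescence (ATPlite 1step), and IC50 values came from variable-slope non-linear regression.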
# [3] = AlphaScreen assay, Table C2, read-out: BRD4 BDII IC50
# [4] = SKM-1, 96 h, SKM-1 antiproliferation assay, 4 days, Table C2
# [5] = BRD4 BDII AlphaScreen assay, read-out: BRD4 BD2 IC50
# [6] = SKM-1, SKM-1 antiproliferation assay
SMILES,"IC50 [1, 3] [nM]","GI50 [2, 4] [nM]","IC50 [1, 5] [nM]","GI50 [2, 6] [nM]"
"Cc1ccc(S(=O)(=O)n2ccc3c(N4CCN[C@H](C)C4)cc(-c4cc(F)cc(-c5ccc(-n6ccn(C)c6=O)c(Cl)c5)c4O)cc32)cc1 [Example 608, (R)-1-(3-chloro-5′-fluoro-2′-hydroxy-3′-(4-(3-methylpiperazin-1-yl)-1-tosyl-1H-indol-6-yl)-[1,1′-biphenyl]-4-yl)-3-methyl-1H-imidazol-2(3H)-one]",10 to 100,30 to 300,,
"Cc1cc(-c2ccc(-n3ccn(C)c3=O)c(Cl)c2)c(O)c(-c2cc(Cl)c(F)c(N3CCN(C(C)(C)C)CC3)c2)n1 [Example 1010, 1-(4-(2-(3-(4-(tert-butyl)piperazin-1-yl)-5-chloro-4-fluorophenyl)-3-hydroxy-6-methylpyridin-4-yl)-2-chlorophenyl)-3-methyl-1H-imidazol-2(3H)-one]",,,0.01 to 1,0.3 to 30
"CN1CCN(c2cc(-c3cc(F)cc(-c4ccc(-n5ccn(C)c5=O)c(Cl)c4)c3O)cc3[nH]ncc23)CC1 [Example 588, 1-(3-chloro-5′-fluoro-2′-hydroxy-3′-(4-(4-methylpiperazin-1-yl)-1H-indazol-6-yl)-[1,1′-biphenyl]-4-yl)-3-methyl-1H-imidazol-2(3H)-one]",0.01 to 1,0.3 to 30,,
"C#CCN1CCN(c2cc(-c3cc(F)cc(-c4ccc(-n5ccn(C)c5=O)c(Cl)c4)c3O)ccn2)CC1 [Example 669, 1-(3-chloro-5′-fluoro-2′-hydroxy-3′-(2-(4-(prop-2-yn-1-yl)piperazin-1-yl)pyridin-4-yl)-[1,1′-biphenyl]-4-yl)-3-methyl-1H-imidazol-2(3H)-one]",0.01 to 1,30 to 300,,
"Cc1cc(-c2cncc(N3CC[C@H](N)C3)c2)c(O)c(-c2ccc(-n3ccn(C)c3=O)c(Cl)c2)c1 [Example 509, (S)-1-(3′-(5-(3-aminopyrrolidin-1-yl)pyridin-3-yl)-3-chloro-2′-hydroxy-5′-methyl-[1,1′-biphenyl]-4-yl)-3-methyl-1H-imidazol-2(3H)-one]",1 to 10,0.3 to 30,,
"CN1CCN(c2ccc(-c3cc(F)cc(-c4ccnc(N5CC6(CNC6)C5)c4)c3O)cc2Cl)C1=O [Example 352, 1-(3′-(2-(2,6-diazaspiro[3.3]heptan-2-yl)pyridin-4-yl)-3-chloro-5′-fluoro-2′-hydroxy-[1,1′-biphenyl]-4-yl)-3-methylimidazolidin-2-one]",10 to 100,300 to 3000,,
"CN[C@H]1CCN(c2cc(-c3cc(F)cc(-c4ccc(N5CCN(C)C5=O)c(Cl)c4)c3O)ccn2)C1 [Example 438, (S)-1-(3-chloro-5′-fluoro-2′-hydroxy-3′-(2-(3-(methylamino)pyrrolidin-1-yl)pyridin-4-yl)-[1,1′-biphenyl]-4-yl)-3-methylimidazolidin-2-one]",1 to 10,30 to 300,,
"Cn1ccn(-c2ccc(-c3cc(F)cc(-c4ccnc(N5CC[C@@H](O)C5)c4)c3O)cc2Cl)c1=O [Example 627, (R)-1-(3-chloro-5′-fluoro-2′-hydroxy-3′-(2-(3-hydroxypyrrolidin-1-yl)pyridin-4-yl)-[1,1′-biphenyl]-4-yl)-3-methyl-1H-imidazol-2(3H)-one]",0.01 to 1,30 to 300,,
"Cn1ccn(-c2ccc(-c3cc(F)cc(-c4ccnc(N5C[C@@H](O)[C@@H](O)C5)c4)c3O)cc2Cl)c1=O [Example 739, 1-(3-chloro-3′-(2-((3S,4R)-3,4-dihydroxypyrrolidin-1-yl)pyridin-4-yl)-5′-fluoro-2′-hydroxy-[1,1′-biphenyl]-4-yl)-3-methyl-1H-imidazol-2(3H)-one]",0.01 to 1,0.3 to 30,,
CC(=O)Nc1ccc(-c2cccc(-c3cncc(N4CCN[C@H](C)C4)c3)c2O)cc1F [Example 258],1 to 10,30 to 300,,
"COCCOc1ncc(-c2cc(F)cc(-c3ccc(N4CCN(C)C4=O)c(Cl)c3)c2O)cc1N1CCNCC1 [Example 393, 1-(3-chloro-5′-fluoro-2′-hydroxy-3′-(6-(2-methoxyethoxy)-5-(piperazin-1-yl)pyridin-3-yl)-[1,1′-biphenyl]-4-yl)-3-methylimidazolidin-2-one]",1 to 10,30 to 300,,
"COc1ncc(-c2cc(F)cc(-c3ccc(-n4ccn(C)c4=O)c(Cl)c3)c2O)cc1N1CCN(C(C)(C)CO)CC1 [Example 960, 1-(3-chloro-5′-fluoro-2′-hydroxy-3′-(5-(4-(1-hydroxy-2-methylpropan-2-yl)piperazin-1-yl)-6-methoxypyridin-3-yl)-[1,1′-biphenyl]-4-yl)-3-methyl-1H-imidazol-2(3H)-one]",,,1 to 10,0.3 to 30
"Cn1ccn(-c2ccc(-c3cc(F)cc(-c4ccnc(N5CC[C@@H](O)[C@H](N)C5)c4)c3O)cc2Cl)c1=O [Example 487, 1-(3′-(2-((3R,4R)-3-amino-4-hydroxypiperidin-1-yl)pyridin-4-yl)-3-chloro-5′-fluoro-2′-hydroxy-[1,1′-biphenyl]-4-yl)-3-methyl-1H-imidazol-2(3H)-one]",1 to 10,30 to 300,,
"CN1CCN(c2ccc(-c3cccc(-c4ccc(CN)c(N5CCNCC5)c4)c3O)cc2Cl)C1=O [Example 319, 1-(4″-(aminomethyl)-3-chloro-2′-hydroxy-3″-(piperazin-1-yl)-[1,1′:3′,1″-terphenyl]-4-yl)-3-methylimidazolidin-2-one]",1 to 10,300 to 3000,,
"CN1CCC12CCCN(c1cc(-c3cc(F)cc(-c4ccc(-n5ccn(C)c5=O)c(Cl)c4)c3O)ccn1)C2 (centres unmarked) [Example 693, 1-(3-chloro-5′-fluoro-2′-hydroxy-3′-(2-(1-methyl-1,6-diazaspiro[3.5]nonan-6-yl)pyridin-4-yl)-[1,1′-biphenyl]-4-yl)-3-methyl-1H-imidazol-2(3H)-one]",0.01 to 1,0.3 to 30,,
"Cc1cccn(-c2ccc(-c3cc(F)cc(-c4ccnc(N5CCNCC5)c4)c3O)cc2Cl)c1=O [Example 496, 1-(3-chloro-5′-fluoro-2′-hydroxy-3′-(2-(piperazin-1-yl)pyridin-4-yl)-[1,1′-biphenyl]-4-yl)-^3-methylpyridin-2(1H)-one]",> 100,≥ 3000,,
"CN[C@H]1CCN(c2cncc(-c3cc(F)cc(-c4ccc(-n5ccn(C)c5=O)c(Cl)c4)c3O)c2)C1 [Example 476, (S)-1-(3-chloro-5′-fluoro-2′-hydroxy-3′-(5-(3-(methylamino)pyrrolidin-1-yl)pyridin-3-yl)-[1,1′-biphenyl]-4-yl)-3-methyl-1H-imidazol-2(3H)-one]",0.01 to 1,0.3 to 30,,
"Cc1cc(-c2ccc(-n3ccn(C)c3=O)c(Cl)c2)c(O)c(-c2ccc(Cl)c(N3CCN(C(C)(C)C)CC3)c2)n1 [Example 1013, 1-(4-(2-(3-(4-(tert-butyl)piperazin-1-yl)-4-chlorophenyl)-3-hydroxy-6-methylpyridin-4-yl)-2-chlorophenyl)-3-methyl-1H-imidazol-2(3H)-one]",,,1 to 10,0.3 to 30
Cc1cc(-c2cc(-c3ccn[nH]3)cc(N3CCNCC3)c2)c(O)c(-c2ccc(-n3ccn(C)c3=O)c(Cl)c2)c1 [Example 569],1 to 10,30 to 300,,
"Cn1ccn(-c2ccc(-c3cc(F)cc(-c4cncc(N5CCNC6(CC6)C5)c4)c3O)cc2Cl)c1=O [Example 550, 1-(3′-(5-(4,7-diazaspiro[2.5]octan-7-yl)pyridin-3-yl)-3-chloro-5′-fluoro-2′-hydroxy-[1,1′-biphenyl]-4-yl)-3-methyl-1H-imidazol-2(3H)-one]",0.01 to 1,0.3 to 30,,
"CC(C)N1CCN(c2cc(-c3cc(F)cc(-c4ccc(-n5ccn(C)c5=O)c(Cl)c4)c3O)cc(=O)n2C)CC1 [Example 717, 4-(3′-chloro-5-fluoro-2-hydroxy-4′-(3-methyl-2-oxo-2,3-dihydro-1H-imidazol-1-yl)-[1,1′-biphenyl]-3-yl)-6-(4-isopropylpiperazin-1-yl)-1-methylpyridin-2(1H)-one]",0.01 to 1,0.3 to 30,,
"CC(=O)Nc1ccc(-c2cccc(-c3cc(C#N)nc(N4CCNCC4)c3)c2O)cc1F [Example 313, N-(3′-(2-cyano-6-(piperazin-1-yl)pyridin-4-yl)-3-fluoro-2′-hydroxy-[1,1′-biphenyl]-4-yl)acetamide]",> 100,≥ 3000,,
"Cc1cc(-c2ccc(-n3ccn(C)c3=O)c(Cl)c2)c(O)c(-c2cnc(C)c(N3CCC4(CCCN4C(C)C)C3)c2)n1 (centres unmarked) [Example 973, 1-(2-chloro-4-(3-hydroxy-5′-(1-isopropyl-1,7-diazaspiro[4.4]nonan-7-yl)-6,6′-dimethyl-[2,3′-bipyridin]-4-yl)phenyl)-3-methyl-1H-imidazol-2(3H)-one]",,,0.01 to 1,0.3 to 30
"CC(=O)NC1(C)CN(c2cc(-c3cc(F)cc(-c4ccc(-n5ccn(C)c5=O)c(Cl)c4)c3O)ccn2)C1 [Example 768, N-(1-(4-(3′-chloro-5-fluoro-2-hydroxy-4′-(3-methyl-2-oxo-2,3-dihydro-1H-imidazol-1-yl)-[1,1′-biphenyl]-3-yl)pyridin-2-yl)-3-methylazetidin-3-yl)acetamide]",1 to 10,30 to 300,,
"CC(C)N1CCCN(c2cc(-c3cc(F)cc(-c4ccc(-n5ccn(C)c5=O)c(Cl)c4)c3O)ccn2)CC1 [Example 678, 1-(3-chloro-5′-fluoro-2′-hydroxy-3′-(2-(4-isopropyl-1,4-diazepan-1-yl)pyridin-4-yl)-[1,1′-biphenyl]-4-yl)-3-methyl-1H-imidazol-2(3H)-one]",0.01 to 1,0.3 to 30,,
